# Assay results from patent publication US20220323455A1, “FUSED HETEROCYCLIC DERIVATIVES AS ANTIVIRAL AGENTS” (priority 2019, published 2022).
# Tested on: HBV
# Assay: HBV replication inhibition assay (BDNA assay) in HepG2.2.15 cells
# Assay type: cell-based, Hepatitis B virus
# Details: 6 days, encapsidated HBV DNA in supernatant
# Description: HBV replication inhibition by the disclosed compounds were determined in cells infected or transfected with HBV or cells with stably integrated HBV, such as HepG2.2.15 cells (Sells et al. 1987). In this example, HepG2.2.15 cells were maintained in cell culture medium containing 10% fetal bovine serum (FBS), Geneticin, L-glutamine, penicillin and streptomycin. HepG2.2.15 cells were seeded in 96-well plates at a density of 40,000 cells/well and were treated with serially diluted compounds at a final DMSO concentration of 0.5% either alone or in combination by adding drugs in a checker box format. Cells were incubated with compounds for three days, after which medium was removed and fresh medium containing compounds was added to cells and incubated for another three days. At day 6, supernatant was removed and treated with DNase at 37° C. for 60 minutes, followed by enzyme inactivation at 75° C. for 15 minutes. Encapsidated HBV DNA was released from the virions and covalently linked HBV polymerase by incubating in lysis buffer (Affymetrix QS0010) containing 2.5 μg proteinase K at 50° C. for 40 minutes. HBV DNA was denatured by addition of 0.2 M NaOH and detected using a branched DNA (BDNA) QuantiGene assay kit according to manufacturer recommendation (Affymetrix). HBV DNA levels were also quantified using qPCR, based on amplification of encapsidated HBV DNA extraction with QuickExtraction Solution (Epicentre Biotechnologies) and amplification of HBV DNA using HBV specific PCR probes that can hybridize to HBV DNA and a fluorescently labeled probe for quantitation. In addition, cell viability of HepG2.2.15 cells incubated with test compounds alone or in combination was determined by using CellTitre-Glo reagent according to the manufacturer protocol (Promega). The mean background signal from wells containing only culture medium was subtracted from all other samples, and percent inhibition at each compound concentration was calculated by normalizing to signals from HepG2.2.15 cells treated with 0.5% DMSO using equation E1.
# % inhibition(DMSOave−Xi)DMSOave×100% E1:
# where DMSOave is the mean signal calculated from the wells that were treated with DMSO control (0% inhibition control) and Xi is the signal measured from the individual wells. EC50 values, effective concentrations that achieved 50% inhibitory effect, were determined by non-linear fitting using Graphpad Prism software (San Diego, Calif.) and equation E2.
# Y=Ymin+(Ymax−Ymin)/(1+10(Log EC50−X)×HillSlope) E2:
# where Y represents percent inhibition values and X represents the logarithm of compound concentrations.
# Selected disclosed compounds were assayed in the HBV replication assay (BDNA assay), as described above, and a representative group of these active compounds is shown in Table 5.
row,Structure (SMILES),EC50 [nM]
1,"O=C(Nc1ccnc(Br)c1F)N1CCc2nn3c(c2C1)C(F)(F)CCC(F)(CO)C3 (single isomer, unassigned) [Example 48, (R*)—N-(2-Bromo-3-fluoropyridin-4-yl)-8,11,11-trifluoro-8-(hydroxymethyl)-3,4,8,9,10,11-hexahydro-1H-pyrido[4′,3′:3,4]pyrazolo[1,5-a]azepine-2(7H)-carboxamide]",11
2,"N#Cc1cc(NC(=O)N2CCc3nn4c(c3C2)C(F)(F)CCC(COCC(F)F)C4)ccc1F (single isomer, unassigned) [Example 29, (R*)—N-(3-Cyano-4-fluorophenyl)-8-((2,2-difluoroethoxy)methyl)-11,11-difluoro-3,4,8,9,10,11-hexahydro-1H-pyrido[4′,3′:3,4]pyrazolo[1,5-a]azepine-2(7H)-carboxamide]",78
3,"N#Cc1cc(NC(=O)N2CCc3nn4c(c3C2)C(F)(F)CCC(COCC(F)F)C4)ccc1F (single isomer, unassigned) [Example 27, (S*)—N-(3-Cyano-4-fluorophenyl)-8-((2,2-difluoroethoxy)methyl)-11,11-difluoro-3,4,8,9,10,11-hexahydro-1H-pyrido[4′,3′:3,4]pyrazolo[1,5-a]azepine-2(7H)-carboxamide]",6
4,"C=CC1(O)CCC(F)(F)c2c3c(nn2C1)CCN(C(=O)Nc1ccc(F)c(C#N)c1)C3 (single isomer, unassigned) [Example 57, (S*)—N-(3-Cyano-4-fluorophenyl)-11,11-difluoro-8-hydroxy-8-vinyl-3,4,8,9,10,11-hexahydro-1H-pyrido[4′,3′:3,4]pyrazolo[1,5-a]azepine-2(7H)-carboxamide]",9
5,"N#CCC1(O)CCC(F)(F)c2c3c(nn2C1)CCN(C(=O)Nc1ccnc(C(F)F)c1F)C3 (single isomer, unassigned) [Example 42, (R*)-8-(Cyanomethyl)-N-(2-(difluoromethyl)-3-fluoropyridin-4-yl)-11,11-difluoro-8-hydroxy-3,4,89,10,11-hexahydro-1H-pyrido[4′,3′:3,4]pyrazolo[1,5-a]azepine-2(7H)-carboxamide]",163
6,"C[C@@H]1Cc2nn3c(c2CN1C(=O)Nc1ccnc(C(F)F)c1F)C(F)(F)CCC(CO)C3 (single isomer, unassigned) [Example 82, (3R,8R*)—N-(2-(Difluoromethyl)-3-fluoropyridin-4-yl)-11,11-difluoro-8-(hydroxymethyl)-3-methyl-3,4,8,9,10,11-hexahydro-1H-pyrido[4′,3′:3,4]pyrazolo[1,5-a]azepine-2(7H)-carboxamide]",1
7,"N#Cc1cc(NC(=O)N2CCc3nn4c(c3C2)C(F)(F)CCC(CO)C4)ccc1F (single isomer, unassigned) [Example 19, (S*)—N-(3-Cyano-4-fluorophenyl)-11,11-difluoro-8-(hydroxymethyl)-3,4,8,9,10,11-hexahydro-1H-pyrido[4′,3′:3,4]pyrazolo[1,5-a]azepine-2(7H)-carboxamide]",4
8,"O=C(Nc1ccnc(Br)c1F)N1CCc2nn3c(c2C1)C(F)(F)CC(O)CC3 (single isomer, unassigned) [Example 137, (R*)—N-(2-Bromo-3-fluoropyridin-4-yl)-11,11-difluoro-9-hydroxy-3,4,8,9,10,11-hexahydro-1H-pyrido[4′,3′:3,4]pyrazolo[1,5-a]azepine-2(7H)-carboxamide]",2
9,"C[C@@H]1Cc2nn3c(c2CN1C(=O)Nc1ccc(F)c(C#N)c1)C(F)(F)CC(O)(CO)CC3 (single isomer, unassigned) [Example 126, (3R,9S*)—N-(3-Cyano-4-fluorophenyl)-11,11-difluoro-9-hydroxy-9-(hydroxymethyl)-3-methyl-3,4,8,9,10,11-hexahydro-1H-pyrido[4′,3′:3,4]pyrazolo[1,5-a]azepine-2(7H)-carboxamide]",5
10,"N#Cc1cc(NC(=O)N2CCc3nn4c(c3C2)C(F)(F)CC(CO)CC4)ccc1F (single isomer, unassigned) [Example 134, (S*)—N-(3-Cyano-4-fluorophenyl)-11,11-difluoro-9-(hydroxymethyl) -3,4,8,9,10,11-hexahydro-1H-pyrido[4′,3′:3,4]pyrazolo[1,5-a]azepine-2(7H)-carboxamide]",17
11,"N#Cc1cc(NC(=O)N2CCc3nn4c(c3C2)C(F)(F)CCC(CO)C4)ccc1F (single isomer, unassigned) [Example 23, (R*)—N-(3-Cyano-4-fluorophenyl)-11,11-difluoro-8-(hydroxymethyl)-3,4,8,9,10,11-hexahydro-1H-pyrido[4′,3′:3,4]pyrazolo[1,5-a]azepine-2(7H)-carboxamide]",18
12,"C[C@@H]1Cc2nn3c(c2CN1C(=O)Nc1ccnc(Br)c1F)C(F)(F)CCC(F)(CO)C3 (single isomer, unassigned) [Example 112, (3R,8S*)—N-(2-Bromo-3-fluoropyridin-4-yl)-8,11,11-trifluoro-8-(hydroxymethyl)-3-methyl-3,4,8,9,10,11-hexahydro-1H-pyrido[4′,3′:3,4]pyrazolo[1,5-a]azepine-2(7H)-carboxamide]",45
13,"C[C@@H]1Cc2nn3c(c2CN1C(=O)Nc1ccc(F)c(C(F)(F)F)c1)C(F)(F)CCC(CO)C3 (single isomer, unassigned) [Example 80, (3R,8R*)-11,11-Difluoro-N-(4-fluoro-3-(trifluoromethyl)phenyl)-8-(hydroxymethyl)-3-methyl-3,4,8,9,10,11-hexahydro-1H-pyrido[4′,3′:3,4]pyrazolo[1,5-a]azepine-2(7H)-carboxamide]",1
14,"C#CC1(O)CCC(F)(F)c2c3c(nn2C1)C[C@@H](C)N(C(=O)Nc1ccc(F)c(C#N)c1)C3 (single isomer, unassigned) [Example 95, (3R,8R*)—N-(3-Cyano-4-fluorophenyl)-8-ethynyl-11,11-difluoro-8-hydroxy-3-methyl-3,4,8,9,10,11-hexahydro-1H-pyrido[4′,3′:3,4]pyrazolo[1,5-a]azepine-2(7H)-carboxamide]",13
15,"COC(=O)NCC1CCC(F)(F)c2c3c(nn2C1)C[C@@H](C)N(C(=O)Nc1ccc(F)c(C#N)c1)C3 (single isomer, unassigned) [Example 105, methyl (((3R,8R*)-2-((3-cyano-4-fluorophenyl)carbamoyl)-11,11-difluoro-3-methyl-2,3,4,7,8,9,10,11-octahydro-1H-pyrido[4′,3′:3,4]pyrazolo[1,5-a]azepin-8-yl)methyl)carbamate]",3
16,"C[C@@H]1Cc2nn3c(c2CN1C(=O)Nc1ccc(F)c(C#N)c1)C(F)(F)CC(O)(CO)CC3 (single isomer, unassigned) [Example 125, (3R,9R*)—N-(3-Cyano-4-fluorophenyl)-11,11-difluoro-9-hydroxy-9-(hydroxymethyl)-3-methyl-3,4,8,9,10,11-hexahydro-1H-pyrido[4′,3′:3,4]pyrazolo[1,5-a]azepine-2(7H)-carboxamide]",14
17,"N#Cc1cc(NC(=O)N2CCc3nn4c(c3C2)C(F)(F)CC(O)CC4)ccc1F (single isomer, unassigned) [Example 138, (R*)—N-(3-Cyano-4-fluorophenyl)-11,11-difluoro-9-hydroxy-3,4,8,9,10,11-hexahydro-1H-pyrido[4′,3′:3,4]pyrazolo[1,5-a]azepine-2(7H)-carboxamide]",1
18,"C[C@@H]1Cc2nn3c(c2CN1C(=O)Nc1ccnc(Br)c1F)C(F)(F)CC(O)CC3 (single isomer, unassigned) [Example 118, (3R,9R*)—N-(2-Bromo-3-fluoropyridin-4-yl)-11,11-difluoro-9-hydroxyl-3-methyl-3,4,8,9,10,11-hexahydro-1H-pyrido[4′,3′:3,4]pyrazolo[1,5-a]azepine-2(7H)-carboxamide]",3
19,"O=C(Nc1ccc(F)c(C(F)(F)F)c1)N1CCc2nn3c(c2C1)C(F)(F)CCC(CO)C3 (single isomer, unassigned) [Example 20, (S*)-11,11-Difluoro-N-(4-fluoro-3-(trifluoromethyl)phenyl)-8-(hydroxymethyl)-3,4,8,9,10,11-hexahydro-1H-pyrido[4′,3′:3,4]pyrazolo[1,5-a]azepine-2(7H)-carboxamide]",4

# Same assay, conditions: Hepatitis B virus, HepG2.2.15, 144 h, 6 days, encapsidated HBV DNA in supernatant
row,Structure (SMILES),EC50 [nM]
1,C[C@@H]1Cc2nn3c(c2CN1C(=O)Nc1ccc(F)c(C#N)c1)C(F)(F)CC[C@H](CO)C3 (relative stereo) [Example 75],5
